# Measurements reported in US20110054033A1, “METHODS OF USING ABSCISIC ACID FOR AMELIORATING HYPERTENSION AND VASCULAR INFLAMMATION” (Virginia Tech Intellectual Properties, Inc., priority 2009, published 2011).
# Assays:
# [1] = system: pancreatic β-cells; details: Bruzzone et al., 2008; cited from earlier work
# [2] = system: endothelial nitric oxide synthase (eNOS); assay: Aortic gene expression by real-time RT-PCR: eNOS; type: in vivo, mice; details: day 84, ratio to β-actin
# Procedure: FIG. 4 are photos and graphs showing aortas collected on day 84 of dietary intervention. Representative photomicrographs (100×) of aortic root specimens from (A) control and (B) ABA-fed mice. (C) Analysis of lumenal areas and (D) tunica media areas were performed with aortic cross-sections using Image Pro Plus software. (E) Aortic thickness was analyzed as a ratio of the intima to the media. Gene expression in the aorta of (F) endothelial nitric oxide synthase (eNOS) and (G) 15-lipoxygenase (15-LOX) were measured as a ratio to the house-keeping gene β-actin. Data were analyzed as a completely randomized design.
# Total RNA was isolated from aortas using the RNA isolation Minikit (Qiagen) according to the manufacturer's instructions. Total RNA (1 μg) was used to generate a complementary DNA (cDNA) template using the iScript cDNA Synthesis Kit (Bio-Rad, Hercules, Calif.). […] Each gene amplicon was purified with the MiniElute PCR Purification Kit (Qiagen) and quantitated on an agarose gel by using a DNA mass ladder (Promega). […]
# (§1) Complementary DNA (cDNA) concentrations for genes of interest were examined by real-time quantitative PCR using an iCycler IQ System and the iQ SYBR green supermix (Bio-Rad). […] Results are presented as a starting quantity of target cDNA (picograms) per microgram of total RNA. […]
# [3] = system: human aorta endothelial cells (HAECs); assay: Nitric oxide in HAEC culture supernatants; type: cell-based; details: 0.001-10 μM ABA
# Procedure: (§2) FIG. 7 are graphs showing effect of ABA on (A) cAMP; (B) NO; and (C) eNOS. (A) Confluent human aortic endothelial cell (HAEC) were serum-starved using HBSS buffer for 30 min and then stimulated with various concentrations of ABA (0, 0.01, 0.1, 1, 10 μM) or Forskolin (1 μM) for […]. After removing supernatant, cells were lysated with 0.1 M HCL for 20 minutes to measure non-acetylated cAMP. (B) Confluent HAEC were serum-starved using HBSS buffer for 30 minutes and then stimulated with various concentrations of ABA (0, 0.001, 0.01, 0.1, 1, 10 μM) for 15 minutes to measure NO. Results (pmol/ml) from four independent experiments are depicted. […]
# (§3) Confluent human aorta endothelial cells (HAECs) at passage 3 maintained with EGM-2 media (Clonetics, Walkerville, Md.) were adapted to Hank's buffered salt solution buffer for 30 min and then stimulated with ABA or forskolin (1 μM) for 10 min. For intracellular assessment of cAMP, the cells were harvested into 0.1 M HCL and the lysates were obtained by sonication and centrifugation. cAMP the lysates were determined by using an EIA kit (Assay Designs, Ann Arbor, Mich.) and results were obtained from four independent experiments. Nitric oxide levels in the cell culture supernatants were determined with the Nitric Oxide Assay Kit according to manufacturer's instructions (Assay Designs). […]
# [4] = system: human aorta endothelial cells (HAECs); assay: Intracellular cAMP in human aorta endothelial cells; type: cell-based; details: tested 0.01-10 μM
# Procedure: as §2, §3
# [5] = system: monocyte chemoattractant protein 1 (MCP-1); assay: Aortic gene expression by real-time RT-PCR: MCP-1; type: in vivo, mice; details: P=0.10
# Procedure: FIG. 6 are graphs showing that ABA decreases immune cell infiltration in aortas of ApoE−/− mice and reduces pro-inflammatory gene expression. ApoE −/− mice were fed high fat diets created with or without 100 mg/kg diet racemic abscisic acid (ABA). (A) Infiltration of F4/80^+CD11b^+ macrophages and CD4^+ T-cells into the aorta were assessed with flow cytometry. Gene expression in the aorta of pro-inflammatory markers (B) vascular cell adhesion molecule 1 (VCAM-1), (C) monocyte chemoattractant protein 1 (MCP-1), (D) E-selectin, (F) peroxisome proliferator-activated receptor γ (PPAR γ), and (G) CD36 were measured as a ratio to the housekeeping gene β-actin. (H) MCP-1 protein concentrations (pg/mL) were measured by ELISA. Data were analyzed as a completely randomized design.
# Total RNA was isolated from aortas using the RNA isolation Minikit (Qiagen) according to the manufacturer's instructions. […] Each gene amplicon was purified with the MiniElute PCR Purification Kit (Qiagen) and quantitated on an agarose gel by using a DNA mass ladder (Promega). […]
# as §1
smiles,measurement,setting,value
"CC1=CC(=O)CC(C)(C)C1(O)/C=C/C(C)=C\C(=O)O (racemic) [ABA, abscisic acid]",Intracellular levels of cAMP,[1],increases intracellular levels of cAMP
same,Aortic expression of eNOS mRNA vs control,[2],significantly elevated
same,NO production,[3],enhanced NO production
same,Dose inducing maximal effect on intracellular cAMP,[4],1 µM
same,Lowest dose significantly increasing intracellular cAMP concentrations,[4],0.1 µM
same,MCP-1 mRNA expression in the aortic roots vs control,[5],"reduced, though not to statistical significance"
